Common to all, as to type: biochemical
Conditions in all cases: physiologic buffer

In assay [1] the target is T1, recombinant active human PAI-1 (Homo sapiens (Human), UniProt P05121). In words: Fluorometric PAI-1/uPA IC50 plate assay at pH 7.8. The protocol:
To determine the efficacy of various synthesized compounds as PAI-1 inhibitors at pH 7.8, additional fluorometric plate assays were carried out to measure the half maximal inhibitory concentration (IC50) of these compounds on recombinant active human PAI-1 in vitro.
PAI-1 inhibitor compounds were dissolved in DMSO to a final concentration of (10-50 mM), depending upon solubility. […] Fluorescence, as a measure of the rate of AMC release by uPA, was read at the following wavelengths; excitation 370 nm, emission 440 nm. Controls included PAI-1 and uPA in the absence of compound and uPA alone. Percent PAI-1 inhibition was calculated using the following formula: [(uPA alone-uPA/PAI-1+ compound)/(uPA alone-PAI-1/uPA)]*100%. The IC50 was calculated using Graphit (IC50 0-100%).

Assay [2] has as its target anti-thrombin III (ATIII) (Homo sapiens (Human), UniProt P01008). Nature of the assay: Fluorometric ATIII/αIIa IC50 plate assay at pH 7.8 (specificity control). The protocol: (§1) Additional fluorometric plate assays were carried out, as set out below, to determine the IC50 of various synthesized compounds as PAI-1 inhibitors.
Alpha-thrombin is an active enzyme, related to uPA or tPA. Alpha-thrombin is inhibited by the serpin ATIII, which is closely related to PAI-1. This assay was used therefore as a control in testing for specificity of the PAI-1 inhibitor compounds. Thus, any compound that is specific for inhibiting PAI-1 should not inhibit ATIII.
PAI-1 inhibitor compounds were dissolved in DMSO to a final concentration of (10-50 mM), depending upon solubility. […] 100 μL of 100 μM fluorogenic, tripeptide aminomethylcoumarin benzoyl Phe-Val-Arg-AMC substrate was then added and residual αIIa activity was determined based upon cleavage of this substrate. The rate of AMC release by αIIa was measured at an excitation wavelength of 370 nm and an emission wavelength of 440 nm. Controls included PAI-1 and αIIa in the absence of compound and αIIa alone. Percent PAI-1 inhibition is calculated using the following formula: [(αIIa alone-αIIa/PAI-1+ compound)/(αIIa alone-PAI-1/αIIa)]*100%. The IC50 is calculated using Graphit (IC50 0-100%).

Assay [3] addresses T1, recombinant active human PAI-1. In words: Fluorometric PAI-1/tPA IC50 plate assay at pH 7.8. The protocol: as §1
PAI-1 inhibitor compounds were dissolved in DMSO to a final concentration of (10-50 mM), depending upon solubility. […] Tissue type PA activity in each reaction mixture was determined by adding Phe-Gly-Arg-AMC fluorogenic substrate (100 μL of 100 μM) (Centerchem). The rate of AMC release by tPA was measured at an excitation wavelength of 370 nm and an emission wavelength of 440 nm. Controls included PAI-1 and tPA in the absence of compound and tPA alone. Percent PAI-1 inhibition was calculated using the following formula: [(tPA alone-tPA/PAI-1+ compound)/(tPA alone-PAI-1/tPA)]*100%. The IC50 is calculated using Graphit (IC50 0-100%).

Sequence of anti-thrombin III (ATIII) (P01008 33-464 limits assumed, species assumed): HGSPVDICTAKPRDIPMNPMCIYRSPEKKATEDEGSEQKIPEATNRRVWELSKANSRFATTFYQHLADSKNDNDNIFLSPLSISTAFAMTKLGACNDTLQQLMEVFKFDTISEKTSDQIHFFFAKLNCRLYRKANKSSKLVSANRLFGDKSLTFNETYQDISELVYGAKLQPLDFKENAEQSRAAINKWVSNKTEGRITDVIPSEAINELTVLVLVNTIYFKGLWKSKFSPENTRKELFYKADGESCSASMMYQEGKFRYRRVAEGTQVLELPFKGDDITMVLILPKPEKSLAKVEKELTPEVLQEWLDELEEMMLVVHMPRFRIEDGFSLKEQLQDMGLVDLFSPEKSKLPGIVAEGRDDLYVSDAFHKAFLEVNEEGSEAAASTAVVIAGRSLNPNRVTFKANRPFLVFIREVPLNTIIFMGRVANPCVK
T1 sequence (P05121 24-402): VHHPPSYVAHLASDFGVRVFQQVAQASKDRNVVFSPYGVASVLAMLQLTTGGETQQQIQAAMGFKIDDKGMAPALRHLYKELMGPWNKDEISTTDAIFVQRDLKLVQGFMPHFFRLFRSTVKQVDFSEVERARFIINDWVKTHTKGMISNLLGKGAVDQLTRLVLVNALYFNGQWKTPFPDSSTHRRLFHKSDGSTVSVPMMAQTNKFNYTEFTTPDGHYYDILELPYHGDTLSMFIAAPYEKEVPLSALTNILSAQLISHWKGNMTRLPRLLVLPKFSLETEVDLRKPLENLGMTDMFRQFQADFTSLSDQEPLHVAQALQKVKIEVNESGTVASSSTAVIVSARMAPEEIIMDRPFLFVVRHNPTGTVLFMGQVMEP

Take `CCCCCCCCN(S(=O)(=O)c1cc(F)c(O)c(F)c1)S(=O)(=O)c1cc(F)c(O)c(F)c1` [C155]: the IC50 in assay [1] turned out to be 30.4 µM; in assay [2], 2330 µM; in assay [3] it was 34.8 µM.

Consider `CCCCCCCCCCCCN(S(=O)(=O)c1ccc(O)c(O)c1)S(=O)(=O)c1ccc(O)c(O)c1` [C158], for which the figures for the IC50 in assay [1], in assay [2] and in assay [3] were 2.6 µM, 547 µM and 1.44 µM, respectively.

`CCCCCCCCCCN(S(=O)(=O)c1ccc(O)c(O)c1)S(=O)(=O)c1ccc(O)c(O)c1` [C157]: the IC50 in assay [1] was 0.25 µM; in assay [2], 44.4 µM; in assay [3], 0.98 µM.

As for `CCCCCCCCNC(=O)c1cc(O)c(O)c(O)c1` [C161], the half-inhibitory concentration (IC50) in assay [1] is 3.7 µM; in assay [2], 1670 µM; in assay [3] it was 2.21 µM.

For `CCCCCCCCN(S(=O)(=O)c1ccc(O)c(O)c1)S(=O)(=O)c1cc(F)c(O)c(F)c1` [C152], the IC50 is 1.57 µM in assay [1], 87 µM in assay [2] and 1.71 µM in assay [3].

`O=S(=O)(NCc1ccccc1)c1ccc(O)c(O)c1` [C160]: the IC50 in assay [1] came to 39 µM; in assay [2], 2330 µM; in assay [3], 58.2 µM.
